The text below walks through data of US8173693B2, “Benzenesulfonamide derivatives and pharmaceutical composition thereof” (Purzer Pharmaceutical Co., Ltd., priority 2010, dated 2012).

Structures are written as SMILES.

Common to all, as to test: SRB assay
Type in all cases: cell-based

For experiment [1], the system named is Human gastric adenocarcinoma AGS cells. To be noted: 48 hr.
The subject of experiment [2] is Human prostate carcinoma PC-3 cells.
Experiment [3] deals with lung carcinoma A549 cells. To be noted: Homo sapiens, 48 hr.
The subject of experiment [4] is Human colorectal adenocarcinoma HT-29 cells. To be noted: 48 hr.

On to `COc1ccc(S(=O)(=O)Nc2cccc3c2[nH]c2c(C)ccc(C)c23)cc1` [Compound 6c, N-(5,8-Dimethyl-9H-carbazol-1-yl)-4-methoxybenzenesulfonamide], for which the GI50 in experiment [1] was found to be 600 nM; in experiment [2] (48 hr) it was 610 nM; in experiment [2] (Homo sapiens, PC-3, 48 h) it was 500 nM; in experiment [3] it was 280 nM; in experiment [4], 320 nM. The molecule also had an IC50 in experiment [2] (Homo sapiens, PC-3, 48 hr) of 1100 nM.

For orientation: GI50 means the concentration giving 50% growth inhibition. For orientation: IC50 means the concentration needed to halve the response being measured.
